Test results published in PubChem BioAssay AID330 (DTP/NCI, 2004).
Where “and” joins values, the source holds several entries; their conditions need not be identical. Equal values may be shown once. Toxic doses and inconclusive results are not listed.

System: P388 leukemia ip, CD2F1 mice, survival T/C
Assay: NCI In Vivo Anticancer Drug Screen. Data for tumor model P388 Leukemia (intraperitoneal) in CD2F1 (CDF1) mice
Conditions: endpoint: median survival time, higher = longer survival
Outline: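 Mice carrying the transplanted tumor received test compound or vehicle. Survival was recorded in each group, and the value is the treated-group measurement divided by that of the vehicle-treated control group.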

[1] = dose: 6.25 mg/kg/injection, schedule: Q01DX009 (ip), vehicle: saline with Tween-80
[2] = dose: 12.5 mg/kg/injection, schedule: Q01DX009 (ip), vehicle: saline with Tween-80
[3] = dose: 25.0 mg/kg/injection, schedule: Q01DX009 (ip), vehicle: saline with Tween-80
[4] = dose: 50.0 mg/kg/injection, schedule: Q01DX005 (ip), vehicle: Klucel (hydroxypropylcellulose) (HPC)
[5] = dose: 100.0 mg/kg/injection, schedule: Q01DX005 (ip), vehicle: Klucel (hydroxypropylcellulose) (HPC)
[6] = dose: 200.0 mg/kg/injection, schedule: Q01DX005 (ip), vehicle: Klucel (hydroxypropylcellulose) (HPC)
[7] = dose: 50.0 mg/kg/injection, schedule: Q01DX009 (ip), vehicle: saline
[8] = dose: 100.0 mg/kg/injection, schedule: Q01DX009 (ip), vehicle: saline
[9] = dose: 200.0 mg/kg/injection, schedule: Q01DX009 (ip), vehicle: saline
[10] = dose: 50.0 mg/kg/injection, schedule: Q01DX005 (ip), vehicle: saline with Tween-80
[11] = dose: 100.0 mg/kg/injection, schedule: Q01DX005 (ip), vehicle: saline with Tween-80
[12] = dose: 60.0 mg/kg/injection, schedule: Q01DX005 (ip), vehicle: saline with Tween-80
[13] = dose: 120.0 mg/kg/injection, schedule: Q01DX005 (ip), vehicle: saline with Tween-80
[14] = dose: 240.0 mg/kg/injection, schedule: Q01DX005 (ip), vehicle: saline with Tween-80
[15] = dose: 50.0 mg/kg/injection, schedule: Q01DX009 (ip), vehicle: Klucel (hydroxypropylcellulose) (HPC)
[16] = dose: 100.0 mg/kg/injection, schedule: Q01DX009 (ip), vehicle: Klucel (hydroxypropylcellulose) (HPC)
[17] = dose: 200.0 mg/kg/injection, schedule: Q01DX009 (ip), vehicle: Klucel (hydroxypropylcellulose) (HPC)
[18] = dose: 50.0 mg/kg/injection, schedule: Q01DX009 (ip), vehicle: saline with Tween-80
[19] = dose: 100.0 mg/kg/injection, schedule: Q01DX009 (ip), vehicle: saline with Tween-80
[20] = dose: 200.0 mg/kg/injection, schedule: Q01DX009 (ip), vehicle: saline with Tween-80
[21] = dose: 200.0 mg/kg/injection, schedule: Q01DX005 (ip), vehicle: saline with Tween-80

## CCCOn1nnc2cc(Cl)ccc21
[1]
  T/C: 102 % of control
[2]
  T/C: 96 % of control
[3]
  T/C: 99 % of control

## COc1ccc2cccc3c4cccc5ccc(OC)c(c1c23)c54
[4]
  T/C: 97 % of control
[5]
  T/C: 99 % of control
[6]
  T/C: 99 % of control

## CC(C)OP(=S)(OC(C)C)SC(C)C
[7]
  T/C: 104 % of control
[8]
  T/C: 119 % of control
[9]
  T/C: 116 % of control

## CCCCCC(CN(C)C)C(=O)/C=C/c1ccc(F)cc1 (stereo not drawn)
dose: 12.5 mg/kg/injection, schedule: Q01DX005 (ip), vehicle: saline with Tween-80
  T/C: 98 % of control
dose: 25.0 mg/kg/injection, schedule: Q01DX005 (ip), vehicle: saline with Tween-80
  T/C: 104 % of control
[10]
  T/C: 107 % of control and 118 % of control
[11]
  T/C: 103 % of control

## O=S1(F)=NP(N2CC2)(N2CC2)=NP(N2CC2)(N2CC2)=N1 (stereo not drawn)
dose: 5.0 mg/kg/injection, schedule: Q04DX003 (ip), vehicle: saline
  T/C: 86 % of control
dose: 10.0 mg/kg/injection, schedule: Q04DX003 (ip), vehicle: saline
  T/C: 102 % of control
dose: 20.0 mg/kg/injection, schedule: Q04DX003 (ip), vehicle: saline
  T/C: 86 % of control
dose: 40.0 mg/kg/injection, schedule: Q04DX003 (ip), vehicle: saline
  T/C: 234 % of control

## CCOC(=O)Nc1nc2ccccc2n1CN1CCOCC1
dose: 25.0 mg/kg/injection, schedule: Q01DX005 (ip), vehicle: Klucel (hydroxypropylcellulose) (HPC)
  T/C: 106 % of control
[4]
  T/C: 106 % of control
[5]
  T/C: 105 % of control
[6]
  T/C: 115 % of control

## COc1cc([N+](=O)[O-])c(S(=O)(=O)O)cc1N
[12]
  T/C: 99 % of control
[13]
  T/C: 94 % of control
[14]
  T/C: 93 % of control

## O=C1OC(=O)C23Cc4ccccc4CC12CC1Cc2ccccc2CC1C3 (stereo not drawn)
[15]
  T/C: 100 % of control
[16]
  T/C: 88 % of control
[17]
  T/C: 94 % of control

## Cc1nc2c(cnn2C)cc1CCc1ccccc1
[12]
  T/C: 94 % of control
[13]
  T/C: 95 % of control
[14]
  T/C: 103 % of control

## Cc1cc(O)c(C(c2ccncc2)c2c(O)cc(C)[nH]c2=O)c(=O)[nH]1
[18]
  T/C: 102 % of control
[19]
  T/C: 95 % of control
[20]
  T/C: 94 % of control

## O=CNc1ccc2c(c1)Cc1cc(Br)ccc1-2
[3]
  T/C: 93 % of control
[18]
  T/C: 98 % of control
[19]
  T/C: 93 % of control
[20]
  T/C: 88 % of control

## CC1C(c2ccccc2)OC(N2CCOCC2)C(C)(C)CN1C (stereo not drawn)
[10]
  T/C: 108 % of control and 93 % of control
[11]
  T/C: 98 % of control and 101 % of control and 116 % of control
[21]
  T/C: 101 % of control and 119 % of control and 121 % of control
dose: 400.0 mg/kg/injection, schedule: Q01DX005 (ip), vehicle: saline with Tween-80
  T/C: 101 % of control

## CNC(=O)Nc1c(C)cccc1C
dose: 25.0 mg/kg/injection, schedule: Q04DX003 (ip), vehicle: saline with Tween-80
  T/C: 104 % of control
dose: 50.0 mg/kg/injection, schedule: Q04DX003 (ip), vehicle: saline with Tween-80
  T/C: 100 % of control
dose: 100.0 mg/kg/injection, schedule: Q04DX003 (ip), vehicle: saline with Tween-80
  T/C: 105 % of control
dose: 200.0 mg/kg/injection, schedule: Q04DX003 (ip), vehicle: saline with Tween-80
  T/C: 107 % of control

## Cc1cc2c(cc1C)C(O)CCC(=O)N2 (stereo not drawn)
[12]
  T/C: 95 % of control
[13]
  T/C: 91 % of control
[14]
  T/C: 87 % of control

## O=C(NC(=NC(=Nc1ccccc1)c1ccccc1)c1ccccc1)c1ccccc1
[18]
  T/C: 99 % of control
[19]
  T/C: 102 % of control
[20]
  T/C: 99 % of control

## CCOC(=O)NCC(C)(c1ccccc1)c1ccccc1
[7]
  T/C: 87 % of control
[8]
  T/C: 94 % of control
[9]
  T/C: 87 % of control

## CN(C)c1ccc(C(=C2C=CC(=[N+](C)C)C=C2)c2cc(S(=O)(=O)O)cc3cc(S(=O)(=O)O)ccc23)cc1
[10]
  T/C: 103 % of control
[11]
  T/C: 107 % of control
[21]
  T/C: 100 % of control

## Cc1ccnc(NS(=O)(=O)c2ccc(N=Nc3nc4[nH]c(N)nc(=S)c4[nH]3)cc2)n1
dose: 0.2 mg/kg/injection, schedule: Q01DX009 (ip), vehicle: saline with Tween-80
  T/C: 124 % of control
[1]
  T/C: 106 % of control

## C=CC(COC(=O)C(Cl)(Cl)Cl)NC(=O)C(Cl)(Cl)Cl (stereo not drawn)
dose: 6.25 mg/kg/injection, schedule: Q01DX005 (ip), vehicle: distilled water + Tween-80
  T/C: 100 % of control
dose: 12.5 mg/kg/injection, schedule: Q01DX005 (ip), vehicle: distilled water + Tween-80
  T/C: 90 % of control
dose: 25.0 mg/kg/injection, schedule: Q01DX005 (ip), vehicle: distilled water + Tween-80
  T/C: 100 % of control
dose: 50.0 mg/kg/injection, schedule: Q01DX005 (ip), vehicle: distilled water + Tween-80
  T/C: 100 % of control
dose: 100.0 mg/kg/injection, schedule: Q01DX005 (ip), vehicle: distilled water + Tween-80
  T/C: 95 % of control

## O=c1[nH]c2c(c(=O)[nH]1)CCCCCC2
dose: 25.0 mg/kg/injection, schedule: Q01DX009 (ip), vehicle: Klucel (hydroxypropylcellulose) (HPC)
  T/C: 102 % of control and 103 % of control
[15]
  T/C: 99 % of control and 103 % of control
[16]
  T/C: 91 % of control and 97 % of control
[17]
  T/C: 102 % of control and 94 % of control

## COc1ccc(CCN2C(=O)NC(=O)C2=O)cc1OC
[12]
  T/C: 97 % of control
[13]
  T/C: 101 % of control
[14]
  T/C: 97 % of control

## CC1(C)OC(=O)C(CCc2ccccn2)(CCc2ccccn2)C(=O)O1
[2]
  T/C: 113 % of control
[3]
  T/C: 103 % of control
[18]
  T/C: 110 % of control
[19]
  T/C: 114 % of control
[20]
  T/C: 104 % of control

## C1=C(N2CCCC2)C(=[N+]2CCCC2)C(N2CCCC2)=C1
dose: 3.75 mg/kg/injection, schedule: Q01DX005 (ip), vehicle: saline with Tween-80
  T/C: 101 % of control
dose: 7.5 mg/kg/injection, schedule: Q01DX005 (ip), vehicle: saline with Tween-80
  T/C: 100 % of control
dose: 15.0 mg/kg/injection, schedule: Q01DX005 (ip), vehicle: saline with Tween-80
  T/C: 105 % of control

## COC(=O)C1=CO[C@@H](OC2OC(CO)C(O)C(O)C2O)[C@@H]2[C@@H](CO)[C@@H](O)[C@@H](OC(=O)/C=C/c3ccc(O)c(O)c3)[C@H]12 (stereo partly drawn)
dose: 7.25 mg/kg/injection, schedule: Q01DX005 (ip), vehicle: saline + alcohol
  T/C: 106 % of control
dose: 14.5 mg/kg/injection, schedule: Q01DX005 (ip), vehicle: saline + alcohol
  T/C: 107 % of control
dose: 29.0 mg/kg/injection, schedule: Q01DX005 (ip), vehicle: saline + alcohol
  T/C: 109 % of control
dose: 58.0 mg/kg/injection, schedule: Q01DX005 (ip), vehicle: saline + alcohol
  T/C: 113 % of control

## CN1C(=O)C(O)(CC(=O)c2ccccc2)c2ccccc21 (stereo not drawn)
[18]
  T/C: 93 % of control
[19]
  T/C: 93 % of control
[20]
  T/C: 90 % of control

## O=C(Cc1nc2ccccc2[nH]1)NNC(=S)NC1CCCCC1
[4]
  T/C: 87 % of control
[5]
  T/C: 88 % of control
